Results on one molecule are retold here after ChEMBL document CHEMBL5120857, “Rational design, synthesis and biological evaluation of dual PARP-1/2 and TNKS1/2 inhibitors for cancer therapy” (Eur J Med Chem, 2022).

Activity calls are given as the source filed them. No cut-off for these calls is given here.

For data set [1], the system named is HCT-116. The data set is described as follows: Antiproliferative activity against human HCT-116 cells assessed as inhibition of cell growth incubated for 7 days by MTT assay. The data set is classed as functional, cell-based. The settings on record: HCT-116, 168 h.
Data set [2] is described as follows: Cytotoxicity against mouse AML12 cells assessed as reduction in cell viability incubated for 7 days by MTT assay. Format: toxicity, cell-based. The settings on record: time 7 day.
Data set [3] concerns HCT-116. Put plainly: Inhibition of Wnt/beta-Catenin signaling in human HCT-116 cells assessed as decrease in active beta-catenin levels at 10 uM by Western blot analysis. Format: cell-based.
Data set [4] deals with HCT-116. The data set is described as follows: Inhibition of Wnt/beta-Catenin signaling in human HCT-116 cells assessed as decrease in cyclin D1 levels at 10 uM by Western blot analysis. The data set is classed as cell-based.
Data set [5] relates to HCT-116. Put plainly: Downregulation of BRCA1 protein expression in human HCT-116 cells at 1 uM by Western blot analysis. Format: functional, cell-based.
Data set [6] concerns HCT-116. The data set is described as follows: Induction of DNA damage in human HCT-116 cells assessed as increase in nuclear gammaH2AX foci incubated for 72 hrs by DAPI staining based immunofluorescence analysis. The data set is classed as functional, cell-based. The settings on record: dose 1.0 µM.
In data set [7] the test system is HCT-116. The data set is described as follows: Induction of apoptosis in human HCT-116 cells assessed as early apoptotic cells at 5 uM incubated for 3 days by annexinV-FITC/propidium iodide staining based flow cytometry (reference value: 7.67 %). Format: functional. The settings on record: time 3 day.
The test system of data set [8] is HCT-116. Put plainly: Induction of apoptosis in human HCT-116 cells assessed as viable cells at 1 uM incubated for 3 days by annexinV-FITC/propidium iodide staining based flow cytometry (reference value: 60.0 %). To be noted: HCT-116, 72 h, time 3 day, read-out: Activity. Format: functional.
For data set [9], the system named is HCT-116. Put plainly: Induction of apoptosis in human HCT-116 cells assessed as necrotic cells at 1 uM incubated for 3 days by annexinV-FITC/propidium iodide staining based flow cytometry (reference value: 3.65 %). The data set is classed as functional. The settings on record: time 3 day.
In data set [10] the test system is HCT-116. The data set is described as follows: Induction of cell cycle arrest in human HCT-116 cells assessed as S phase cells at 5 uM incubated for 3 days by propidium iodide staining based flow cytometry (reference value: 11.26 %). The data set is classed as functional. The settings on record: time 3 day.
Data set [11] concerns HCT-116. The data set is described as follows: Induction of cell cycle arrest in human HCT-116 cells assessed as G2/M phase cells at 5 uM incubated for 3 days by propidium iodide staining based flow cytometry (reference value: 68.35 %). The data set is classed as functional. To be noted: time 3 day.
Data set [12] is described as follows: Half-life in Sprague-Dawley rat at 10 mg/kg, po or 1 mg/kg, iv. The settings on record: in vivo. The data set is classed as ADME, organism-based.
Data set [13] in a line: Toxicity in […] assessed as rat death administered as single dose at 500 mg/kg, ip. Format: organism-based. To be noted: in vivo.
The nature of data set [14]: Toxicity in […] assessed as morphological changes in colon at 500 mg/kg, ip by H&E staining based histopathological analysis. Format: organism-based. The settings on record: in vivo.
The nature of data set [15]: Toxicity in BALB/c nude mouse xenografted with human HCT116 cells at 25 to 100 mg/kg, ip administered once daily for 28 days. The data set is classed as organism-based, HCT-116. To be noted: in vivo, 672 h, dose 25-100 mg/kg, time 28 day.
The target in data set [16] is T1, Poly [ADP-ribose] polymerase tankyrase-1 (Homo sapiens) (UniProt O95271).
T1 sequence (whole entry): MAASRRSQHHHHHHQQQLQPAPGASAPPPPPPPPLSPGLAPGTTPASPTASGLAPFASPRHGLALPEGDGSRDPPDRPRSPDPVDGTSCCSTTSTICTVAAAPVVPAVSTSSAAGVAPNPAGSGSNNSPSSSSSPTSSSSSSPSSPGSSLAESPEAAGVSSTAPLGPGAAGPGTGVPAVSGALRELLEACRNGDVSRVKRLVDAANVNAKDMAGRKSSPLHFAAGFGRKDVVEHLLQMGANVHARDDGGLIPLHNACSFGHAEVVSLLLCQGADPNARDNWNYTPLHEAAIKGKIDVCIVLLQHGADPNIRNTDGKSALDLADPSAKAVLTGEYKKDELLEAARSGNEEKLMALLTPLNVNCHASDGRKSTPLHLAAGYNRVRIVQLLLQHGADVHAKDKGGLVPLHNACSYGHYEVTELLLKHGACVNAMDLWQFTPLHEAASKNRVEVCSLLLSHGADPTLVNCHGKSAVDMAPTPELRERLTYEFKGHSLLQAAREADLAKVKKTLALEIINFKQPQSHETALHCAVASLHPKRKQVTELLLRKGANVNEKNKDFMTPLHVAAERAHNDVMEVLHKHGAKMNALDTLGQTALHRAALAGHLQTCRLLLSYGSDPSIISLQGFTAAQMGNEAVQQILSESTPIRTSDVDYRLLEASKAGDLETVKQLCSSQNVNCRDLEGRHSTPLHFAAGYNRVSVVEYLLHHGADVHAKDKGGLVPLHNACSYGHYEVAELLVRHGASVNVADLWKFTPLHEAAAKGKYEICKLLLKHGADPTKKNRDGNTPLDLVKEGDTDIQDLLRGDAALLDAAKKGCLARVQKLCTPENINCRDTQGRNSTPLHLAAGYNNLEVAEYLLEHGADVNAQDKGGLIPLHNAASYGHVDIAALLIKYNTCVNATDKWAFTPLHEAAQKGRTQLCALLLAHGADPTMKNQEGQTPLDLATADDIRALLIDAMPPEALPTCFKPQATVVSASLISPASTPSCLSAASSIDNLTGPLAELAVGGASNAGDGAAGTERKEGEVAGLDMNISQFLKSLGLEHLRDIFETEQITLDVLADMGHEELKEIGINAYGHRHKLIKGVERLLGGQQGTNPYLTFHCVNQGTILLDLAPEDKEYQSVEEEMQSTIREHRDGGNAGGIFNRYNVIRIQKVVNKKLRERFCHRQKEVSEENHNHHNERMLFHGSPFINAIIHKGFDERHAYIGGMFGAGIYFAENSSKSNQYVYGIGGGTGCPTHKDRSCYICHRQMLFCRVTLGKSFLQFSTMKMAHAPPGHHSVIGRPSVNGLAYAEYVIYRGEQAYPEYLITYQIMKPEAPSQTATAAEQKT
The settings on record: dose 10.0 nM, time 1.0 hrs.

As to `COc1ccc(NC(=O)c2ccc(NC(=O)N3CCN(C(=O)c4cc(Cc5n[nH]c(=O)c6ccccc56)ccc4F)CC3)cc2)cc1`, in [1], the IC50 is 0.75 µM. Besides, in data set [2], the CC50 at 168 h came to 117 µM. The inhibition entry in data set [3] and in data set [4] was “Active” each time. Further, the outcome in data set [5] and in data set [6] was Active. The Activity in data set [7] is listed as 6.61%; in data set [9], 4.57%; in [10], 4.19%; in [11], 54.6%; in [13], “Non-Toxic”; in data set [14], “Non-Toxic”. In [15], the Activity result is recorded as “Non-Toxic”. For the same molecule, the viability at 1 µM in data set [8] was found to be 71.3%. Further, the half-life in data set [12] is 1.73 h. In [16], this molecule gave an inhibition of 28%.
